# Laboratory results from patent US20240408093A1, “HETEROBIFUNCTIONAL COMPOUNDS AND THEIR USE IN TREATING DISEASE” (HALDA THERAPEUTICS OPCO, INC., priority 2022, published 2024).
# pKd: −log10 of the molar value.
# Tests used:
# [1] = molecular target: T1, full-length BTK (amino acids 1-659) (Homo sapiens, UniProt Q06187); assay: KdELECT binding assay, BTK
# T1 construct: full-length BTK (amino acids 1-659); host or cells: mammalian cells (HEK-293)
# Description: Exemplary compounds were tested for ability to bind to full-length BTK (amino acids 1-659; Accession Number NP_000052.1) expressed from mammalian cells. Compounds were tested using the KdELECT assay.
# Kinase-tagged T7 phage strains were prepared in an E. coli host derived from the BL21 strain. E. coli were grown to log-phase and infected with T7 phage and incubated with shaking at 32° C. until lysis. The lysates were centrifuged and filtered to remove cell debris. The remaining kinases were produced in HEK-293 cells and subsequently tagged with DNA for qPCR detection. Streptavidin-coated magnetic beads were treated with biotinylated small molecule ligands for 30 minutes at room temperature to generate affinity resins for kinase assays. The liganded beads were blocked with excess biotin and washed with blocking buffer (SeaBlock (Pierce), 1% BSA, 0.05% Tween 20, 1 mM DTT) to remove unbound ligand and to reduce non-specific binding. Binding reactions were assembled by combining kinases, liganded affinity beads, and test compounds in 1× binding buffer (20% SeaBlock, 0.17× PBS, 0.05% Tween 20, 6 mM DTT). Test compounds were prepared as 111× stocks in 100% DMSO. Kd values were determined using an 11-point 3-fold compound dilution series with three DMSO control points. All compounds for Kd measurements are distributed by acoustic transfer (non-contact dispensing) in 100% DMSO. The compounds were then diluted directly into the assays such that the final concentration of DMSO was 0.9%. All reactions performed in polypropylene 384-well plate. Each was a final volume of 0.02 mL. The assay plates were incubated at room temperature with shaking for 1 hour and the affinity beads were washed with wash buffer (1× PBS, 0.05% Tween 20). The beads were then re-suspended in elution buffer (1× PBS, 0.05% Tween 20, 0.5 μM nonbiotinylated affinity ligand) and incubated at room temperature with shaking for 30 minutes. The kinase concentration in the eluates was measured by qPCR.
# HeLa cells (ATCC CCL-2) = assay: Cellular growth inhibition assay, HeLa cells (Example 16); assay type: cell-based; settings: Homo sapiens, 72 hours, CellTiter-Glo 2.0
# GSPT1 = molecular target: T2, GSPT1 (Homo sapiens, UniProt P15170+Q96SW2); assay: GSPT1 HiBiT degradation assay; assay type: cell-based; settings: HEK293 LgBiT GSPT1 HiBiT cells, 6 hours
# T2 construct: host or cells: HEK293 LgBiT / GSPT1 HiBiT CRISPR knock-in
# T2 sequence (P15170 whole entry): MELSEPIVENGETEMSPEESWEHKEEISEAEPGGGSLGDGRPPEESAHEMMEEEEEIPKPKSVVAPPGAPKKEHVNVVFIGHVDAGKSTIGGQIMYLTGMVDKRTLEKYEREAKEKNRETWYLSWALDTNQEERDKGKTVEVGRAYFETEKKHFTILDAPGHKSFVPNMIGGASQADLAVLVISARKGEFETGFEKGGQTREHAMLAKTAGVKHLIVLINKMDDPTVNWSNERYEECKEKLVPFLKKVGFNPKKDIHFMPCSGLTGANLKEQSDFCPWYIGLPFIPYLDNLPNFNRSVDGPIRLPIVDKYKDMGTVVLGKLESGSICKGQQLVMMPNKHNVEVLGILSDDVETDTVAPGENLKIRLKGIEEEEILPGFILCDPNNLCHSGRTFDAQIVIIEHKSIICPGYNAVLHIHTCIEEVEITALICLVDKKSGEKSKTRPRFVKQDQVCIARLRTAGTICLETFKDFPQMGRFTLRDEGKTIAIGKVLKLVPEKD
# T2 sequence (Q96SW2 whole entry): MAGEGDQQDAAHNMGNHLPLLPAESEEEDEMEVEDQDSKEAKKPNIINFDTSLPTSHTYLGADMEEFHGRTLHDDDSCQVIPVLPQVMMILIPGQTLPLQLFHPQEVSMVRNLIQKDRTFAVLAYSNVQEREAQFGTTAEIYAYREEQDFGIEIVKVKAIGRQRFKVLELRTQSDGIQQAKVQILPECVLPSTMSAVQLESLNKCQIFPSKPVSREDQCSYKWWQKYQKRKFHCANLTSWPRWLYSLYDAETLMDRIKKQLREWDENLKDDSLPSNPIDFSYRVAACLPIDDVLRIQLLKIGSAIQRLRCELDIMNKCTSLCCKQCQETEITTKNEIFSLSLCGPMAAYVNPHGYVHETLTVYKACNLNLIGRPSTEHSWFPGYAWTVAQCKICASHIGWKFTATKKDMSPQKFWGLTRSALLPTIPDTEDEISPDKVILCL
# T2 sequence (Q16531 whole entry partner): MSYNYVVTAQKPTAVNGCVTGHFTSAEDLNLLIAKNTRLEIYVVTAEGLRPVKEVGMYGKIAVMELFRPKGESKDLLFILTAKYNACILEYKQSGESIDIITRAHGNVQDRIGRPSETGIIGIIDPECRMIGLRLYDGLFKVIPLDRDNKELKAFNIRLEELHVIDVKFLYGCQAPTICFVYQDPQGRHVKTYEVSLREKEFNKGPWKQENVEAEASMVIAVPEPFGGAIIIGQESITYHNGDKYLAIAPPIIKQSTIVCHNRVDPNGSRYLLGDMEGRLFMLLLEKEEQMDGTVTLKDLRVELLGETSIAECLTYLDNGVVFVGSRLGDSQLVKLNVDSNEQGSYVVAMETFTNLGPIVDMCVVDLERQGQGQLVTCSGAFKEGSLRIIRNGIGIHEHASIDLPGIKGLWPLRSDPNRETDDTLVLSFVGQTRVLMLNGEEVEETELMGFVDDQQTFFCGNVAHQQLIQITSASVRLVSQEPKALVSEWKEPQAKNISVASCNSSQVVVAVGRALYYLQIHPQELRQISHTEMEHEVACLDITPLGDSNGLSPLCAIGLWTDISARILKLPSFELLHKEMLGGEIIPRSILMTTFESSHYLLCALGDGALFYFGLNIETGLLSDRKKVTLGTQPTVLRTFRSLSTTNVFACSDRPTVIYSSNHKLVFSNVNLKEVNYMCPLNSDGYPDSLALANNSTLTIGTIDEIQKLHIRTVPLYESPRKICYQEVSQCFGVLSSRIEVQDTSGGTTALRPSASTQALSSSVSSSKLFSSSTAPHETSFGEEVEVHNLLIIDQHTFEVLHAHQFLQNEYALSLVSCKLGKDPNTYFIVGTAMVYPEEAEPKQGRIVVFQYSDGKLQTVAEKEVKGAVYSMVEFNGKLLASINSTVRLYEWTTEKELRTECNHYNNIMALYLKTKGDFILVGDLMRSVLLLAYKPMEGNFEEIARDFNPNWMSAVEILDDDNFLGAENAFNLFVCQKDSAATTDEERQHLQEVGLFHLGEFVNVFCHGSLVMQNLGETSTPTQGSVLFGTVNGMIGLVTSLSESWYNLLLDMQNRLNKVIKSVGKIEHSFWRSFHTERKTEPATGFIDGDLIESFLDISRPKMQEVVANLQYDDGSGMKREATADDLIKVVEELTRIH
# Method in brief: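 HEK293 CRISPR knock-in cells expressing LgBiT and GSPT1-HiBiT were seeded at 1000 cells/well and, after 18-24 h, treated with titrated compound plus endurazine (0.5× final) at 37 °C. Luminescence read after 6 h; loss of signal reflects GSPT1 degradation, giving DC50.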
# [2] = test system: HEK293 cells (ATCC CRL-1573); assay: Cellular growth inhibition assay, HEK293 cells (Example 16); assay type: cell-based; settings: Homo sapiens, 72 hours, CellTiter-Glo 2.0
# KRAS G12C = molecular target: T3, KRAS G12C (Homo sapiens, UniProt P01116, C118S/C51S/C80L/G12C); assay: Release of effector protein ligand from heterobifunctional compounds, KRAS G12C; assay type: biochemical; settings: detected A1-3
# T3 construct: KRAS G12C C51S C80L C118S (amino acids 1-169)
# Description: (§1) Exemplary heterobifunctional compounds were evaluated for the ability to release an effector protein ligand in the presence of KRAS G12C, BTK, or EGFR T790M L858R target proteins.
# (§2) Samples for mass spectrometry for KRAS G12C, BTK, and EGFR T790M L858R were prepared as described above for the intact mass spectrometry target engagement experiment, respectively, except rather than flash-freezing, 20 μL of sample was quenched with 50 μL of 100% acetonitrile. As well, a buffer-only control was used to detect latent release of effector protein ligand analyte. Internal standard (IS) solution consisted of 200 ng/mL propranolol and 50 ng/mL diclofenac in methanol:water 1:1 (v/v). A 4-point calibration curve (calibration standard (CS)) consisting of each analyte was made at final concentrations of 3 nM, 30 nM, 300 nM, and 3000 nM. Unknown samples were diluted such that the unknown analyte concentration was in the linear range of the calibration curve.
# (§3) Samples for all proteins were prepared and analyzed from the following:
# (§4) Samples were further analyzed with AB Sciex Triple Quad 5500 system coupled with Shimadzu Prominence HPLC.
# [3] = molecular target: T4, KRAS G12C C51S C80L C118S (amino acids 1-169) (Homo sapiens, UniProt P01116, C118S/C51S/C80L/G12C); assay: Intact mass spec target engagement, KRAS G12C; assay type: binding; settings: 24 hours post-reaction; 5 μM KRAS G12C, 50 μM compound
# T4 construct: KRAS G12C C51S C80L C118S (amino acids 1-169)
# Description: (§5) Exemplary heterobifunctional compounds were evaluated for intact mass spectrometry target engagement against KRAS G12C, BTK, or EGFR T790M L858R (amino acids 669-1011; Accession Number NP_005219.2), separately.
# (§6) KRAS G12C: Samples were prepared using 5 μM of KRAS G12C C51S C80L C118S (amino acids 1-169) and 50 μM of heterobifunctional compound in a buffer containing 20 mM HEPES pH 7.5, 150 mM NaCl, and 1 mM TCEP. Protein was incubated with heterobifunctional compound at RT or 37° C. for the given amounts of time then flash-frozen and stored at −80° C. until analysis. Samples were transferred to HPLC vials and injected into Dionex UltiMate 3000 FLM HPLC system with a proprietary column (2.1×50 mm, 5 μm, 1000 Å) at 0.3 mL/minute in a column compartment at 50° C. and run on a Q Exactive Hybrid Quadrupole-Orbitrap Mass Spectrometer. Ion Max source with HESI-II probe were used, with a source voltage of 3.5 kV.
# (§7) Results showing ability of exemplary heterobifunctional compounds to generate a modified target protein via intact mass spectrometry are shown in Table 13 below. The amount of different components identified by mass spectrometry at 24 hours post-reaction are listed in Table 14, wherein the different components include: • Un-modified Protein—this is starting protein material (e.g., KRAS G12C, BTK, or EGFR T790M L858R) that remained unchanged in the experiment. • Elimination-Conjugate Product—this is a conjugate formed by reaction of protein with the heterobifunctional compound to form a protein conjugate of the following general formula: […]
# (§8) Exemplary Other Material can include, for example, residual impurities in the protein starting material used to conduct the experiment.
# HEK293 cells = assay: Cellular growth inhibition assay, HEK293 cells (Example 15); assay type: cell-based; settings: Homo sapiens, 72 h, three days, CellTiter-Glo 2.0
# Description: (§9) HEK293 and HeLa cells were cultured in DMEM medium supplemented with 10% fetal bovine serum and 1% Penn/Strep. Cells were seeded in white 384-well plates at 500 cells/well in 25 μL complete medium. Following seeding, plates were spun at 300×g for three minutes and cultured at 37° C. with 5% CO2 in a humidified tissue culture incubator.
# (§10) After 24 hours, compounds were titrated in 100% DMSO and diluted in complete cell culture medium. A 25 μL aliquot of compound/media mixture was added to cells to bring total volume in the wells to 50 μL. DMSO alone was used as a negative control. Plates were then spun at 300×g for three minutes and stored at 37° C. with 5% CO2 for three days.
# (§11) On Day 0 and Day 3 of compound treatment, cell viability was quantified with CellTiter-Glo 2.0 reagent (Promega). After equilibrating microplates at room temperature for 30 minutes, 25 μL CellTiter-Glo 2.0 reagent was dispensed into each well to bring total volume to 75 μL. Plates were mixed on a shaker for 2 minutes at 500 rpm, followed by a 10-minute incubation at room temperature. Following a quick spin, luminescence readings were measured with an EnVision Plate Reader. Data was normalized to DMSO treated Day 0 and Day 3 readings. […]
# HeLa cells = assay: Cellular growth inhibition assay, HeLa cells (Example 15); assay type: cell-based; settings: Homo sapiens, 72 h, three days, CellTiter-Glo 2.0
# Description: as §9, §10, §11
# BTK = molecular target: T5, BTK (Homo sapiens, UniProt Q06187); assay: Release of effector protein ligand from heterobifunctional compounds, BTK; assay type: biochemical; settings: detected A1-3
# T5 construct: BTK (amino acids 387-659)
# T5 sequence (Q06187 387-659): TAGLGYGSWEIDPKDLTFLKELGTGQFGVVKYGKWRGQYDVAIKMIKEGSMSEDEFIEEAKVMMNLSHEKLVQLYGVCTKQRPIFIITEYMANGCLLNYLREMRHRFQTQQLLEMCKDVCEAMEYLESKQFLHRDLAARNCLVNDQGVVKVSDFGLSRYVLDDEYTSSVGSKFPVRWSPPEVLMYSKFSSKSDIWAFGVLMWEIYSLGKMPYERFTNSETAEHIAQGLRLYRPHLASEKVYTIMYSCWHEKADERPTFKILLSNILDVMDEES
# Description: as §1, §2, §3, §4
# [4] = molecular target: T6, BTK (amino acids 387-659) (Homo sapiens, UniProt Q06187); assay: Intact mass spec target engagement, BTK; assay type: binding; settings: 24 hours post-reaction; 2 μM BTK, 20 μM compound
# T6 construct: BTK (amino acids 387-659)
# T6 sequence (Q06187 387-659): as above
# Description: as §5
# as §6, with “BTK: Samples” for “KRAS G12C: Samples”, “using 2” for “using 5”, “of BTK” for “of KRAS G12C C51S C80L C118S”, “acids 387-659)” for “acids 1-169)”, “and 20” for “and 50”, “NaCl,” for “NaCl, and”
# as §7, §8
# T1 sequence (Q06187 whole entry, the tested form may be a part): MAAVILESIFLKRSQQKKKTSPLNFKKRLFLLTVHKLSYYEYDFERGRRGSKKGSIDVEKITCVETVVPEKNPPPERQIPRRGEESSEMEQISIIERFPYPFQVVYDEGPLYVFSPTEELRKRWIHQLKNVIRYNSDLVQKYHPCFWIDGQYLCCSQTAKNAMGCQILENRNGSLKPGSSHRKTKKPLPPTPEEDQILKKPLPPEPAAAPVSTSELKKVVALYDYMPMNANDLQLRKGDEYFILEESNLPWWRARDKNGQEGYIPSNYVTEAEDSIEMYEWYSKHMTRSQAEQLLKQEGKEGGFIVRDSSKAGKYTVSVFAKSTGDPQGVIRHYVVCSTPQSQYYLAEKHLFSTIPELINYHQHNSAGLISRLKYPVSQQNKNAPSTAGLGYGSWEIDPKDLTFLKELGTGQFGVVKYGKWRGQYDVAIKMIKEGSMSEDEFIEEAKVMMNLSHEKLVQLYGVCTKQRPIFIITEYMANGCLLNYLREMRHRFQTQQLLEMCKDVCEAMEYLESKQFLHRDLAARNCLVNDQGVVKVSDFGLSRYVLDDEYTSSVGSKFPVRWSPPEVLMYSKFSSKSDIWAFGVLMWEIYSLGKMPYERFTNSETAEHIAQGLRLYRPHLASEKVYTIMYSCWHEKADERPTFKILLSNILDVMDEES
structure (smiles),measurement,setting,value
C=C(CN(Cc1ccc2c(c1)CN(C1CCC(=O)NC1=O)C2=O)C(=O)Nc1ccc(C)c(Cl)c1)C(=O)N1CCC[C@@H](n2nc(-c3ccc(Oc4ccccc4)cc3)c3c(N)ncnc32)C1 (stereo partly drawn) [Compound I-31],pKd,[1],5.60 to 6.30
same,GI50,HeLa cells (ATCC CCL-2),> 10 µM
same,DC50,GSPT1,> 2.5 µM
same,GI50,[2],> 10 µM
C=C(Cn1cc(CNc2cc(N3CCCC[C@H]3CCO)nc3c(CC)cnn23)ccc1=O)C(=O)N1CCN(c2nc(OC[C@@H]3CCCN3C)nc3c2CCN(c2cccc4cccc(Cl)c24)C3)C[C@@H]1CC#N [Compound A1-2],Concentration of Effector Protein Ligand,"KRAS G12C; Matrix Buffer + Protein (KRAS G12C), Time 0 h",328 nM
same,Concentration of Effector Protein Ligand,"KRAS G12C; Matrix Buffer + Protein (KRAS G12C), Time 2 h",556 nM
same,Concentration of Effector Protein Ligand,"KRAS G12C; Matrix Buffer + Protein (KRAS G12C), Time 8 h",1170 nM
same,Concentration of Effector Protein Ligand,"KRAS G12C; Matrix Buffer + Protein (KRAS G12C), Time 24 h",2020 nM
same,Concentration of Effector Protein Ligand,"KRAS G12C; Matrix Buffer, Time 0 h",55.8 nM
same,Concentration of Effector Protein Ligand,"KRAS G12C; Matrix Buffer, Time 2 h",85.3 nM
same,Concentration of Effector Protein Ligand,"KRAS G12C; Matrix Buffer, Time 8 h",166 nM
same,Concentration of Effector Protein Ligand,"KRAS G12C; Matrix Buffer, Time 24 h",406 nM
same,Percent Other Material,[3],10%
same,Percent of Addition-Conjugate Product,[3],5%
same,Percent of Elimination-Conjugate Product,[3],83%
same,Percent of Un-modified Protein,[3],2%
C=C(CN(C(=O)NCc1ccc2c(c1)CN(C1CCC(=O)NC1=O)C2=O)c1ccc(C)c(Cl)c1)C(=O)N1CCC[C@@H](n2nc(-c3ccc(Oc4ccccc4)cc3)c3c(N)ncnc32)C1 (stereo partly drawn) [Compound I-4],GI50,HEK293 cells,1.5 to 10 µM
same,GI50,HeLa cells,> 10 µM
C=C(Cn1cc(CNc2cc(N3CCCC[C@H]3CCO)nc3c(CC)cnn23)ccc1=O)C(=O)N1CCC[C@@H](n2nc(-c3ccc(Oc4ccccc4)cc3)c3c(N)ncnc32)C1 [Compound A1-4],Concentration of Effector Protein Ligand,"BTK; Matrix Buffer + Protein (BTK), Time 0 h",17.8 nM
same,Concentration of Effector Protein Ligand,"BTK; Matrix Buffer + Protein (BTK), Time 1 h",281 nM
same,Concentration of Effector Protein Ligand,"BTK; Matrix Buffer + Protein (BTK), Time 4 h",506 nM
same,Concentration of Effector Protein Ligand,"BTK; Matrix Buffer + Protein (BTK), Time 22 h",460 nM
same,Concentration of Effector Protein Ligand,"BTK; Matrix Buffer, Time 0 h",4.16 nM
same,Concentration of Effector Protein Ligand,"BTK; Matrix Buffer, Time 1 h",4 nM
same,Concentration of Effector Protein Ligand,"BTK; Matrix Buffer, Time 4 h",4.49 nM
same,Concentration of Effector Protein Ligand,"BTK; Matrix Buffer, Time 22 h",10.4 nM
same,Percent Other Material,[4],0%
same,Percent of Addition-Conjugate Product,[4],24%
same,Percent of Elimination-Conjugate Product,[4],72%
same,Percent of Un-modified Protein,[4],4%
